Experimental data as given in ChEMBL document CHEMBL1158404, “Antifungal activity of alkyl and heterocyclic aza-derivatives of gossypol as well as their complexes with NaClO4 against Fusarium oxysporum f. sp. lupini” (2009).

Tests used:
Type in all cases: functional
[1] = system: Fusarium oxysporum; experiment: Antifungal activity against Fusarium oxysporum f. sp. lupini at 1 ug/ml after 144 hrs
[2] = system: Fusarium oxysporum; experiment: Antifungal activity against Fusarium oxysporum f. sp. lupini at 20 ug/ml after 192 hrs
[3] = system: Fusarium oxysporum; experiment: Antifungal activity against Fusarium oxysporum f. sp. lupini at 20 ug/ml after 48 hrs
[4] = system: Fusarium oxysporum; experiment: Antifungal activity against Fusarium oxysporum f. sp. lupini at 20 ug/ml after 96 hrs
[5] = system: Fusarium oxysporum; experiment: Antifungal activity against Fusarium oxysporum f. sp. lupini at 1 ug/ml after 48 hrs
[6] = system: Fusarium oxysporum; experiment: Antifungal activity against Fusarium oxysporum f. sp. lupini at 1 ug/ml after 192 hrs
[7] = system: Fusarium oxysporum; experiment: Antifungal activity against Fusarium oxysporum f. sp. lupini at 20 ug/ml after 144 hrs
[8] = system: Fusarium oxysporum; experiment: Antifungal activity against Fusarium oxysporum f. sp. lupini at 20 ug/ml after 192 hrs relative to control; settings: read-out: GI
[9] = system: Fusarium oxysporum; experiment: Antifungal activity against Fusarium oxysporum f. sp. lupini at 1 ug/ml after 96 hrs
[10] = system: Fusarium oxysporum; experiment: Antifungal activity against Fusarium oxysporum f. sp. lupini at 1 ug/ml after 192 hrs relative to control; settings: read-out: GI
[11] = system: Fusarium oxysporum; experiment: Antifungal activity against Fusarium oxysporum f. sp. lupini at 0.1 ug/ml after 96 hrs
[12] = system: Fusarium oxysporum; experiment: Antifungal activity against Fusarium oxysporum f. sp. lupini at 0.1 ug/ml after 144 hrs
[13] = system: Fusarium oxysporum; experiment: Antifungal activity against Fusarium oxysporum f. sp. lupini at 0.5 ug/ml after 48 hrs
[14] = system: Fusarium oxysporum; experiment: Antifungal activity against Fusarium oxysporum f. sp. lupini at 0.5 ug/ml after 96 hrs
[15] = system: Fusarium oxysporum; experiment: Antifungal activity against Fusarium oxysporum f. sp. lupini at 0.5 ug/ml after 144 hrs
[16] = system: Fusarium oxysporum; experiment: Antifungal activity against Fusarium oxysporum f. sp. lupini at 0.1 ug/ml after 192 hrs relative to control; settings: read-out: GI
[17] = system: Fusarium oxysporum; experiment: Antifungal activity against Fusarium oxysporum f. sp. lupini at 0.5 ug/ml after 192 hrs
[18] = system: Fusarium oxysporum; experiment: Antifungal activity against Fusarium oxysporum f. sp. lupini at 0.1 ug/ml after 48 hrs
[19] = system: Fusarium oxysporum; experiment: Antifungal activity against Fusarium oxysporum f. sp. lupini at 0.5 ug/ml after 192 hrs relative to control; settings: read-out: GI
[20] = system: Fusarium oxysporum; experiment: Antifungal activity against Fusarium oxysporum f. sp. lupini at 0.1 ug/ml after 192 hrs

SMILES | Radial growth inhibition of fungi (Ā) (mm) [1] | Radial growth inhibition of fungi (Ā) (mm) [2] | Radial growth inhibition of fungi (Ā) (mm) [3] | Radial growth inhibition of fungi (Ā) (mm) [4] | Radial growth inhibition of fungi (Ā) (mm) [5] | Radial growth inhibition of fungi (Ā) (mm) [6] | Radial growth inhibition of fungi (Ā) (mm) [7] | inhibition of growth at 20 µg/mL [8] | Radial growth inhibition of fungi (Ā) (mm) [9] | inhibition of growth at 1 µg/mL [10] | Radial growth inhibition of fungi (Ā) (mm) [11] | Radial growth inhibition of fungi (Ā) (mm) [12] | Radial growth inhibition of fungi (Ā) (mm) [13] | Radial growth inhibition of fungi (Ā) (mm) [14] | Radial growth inhibition of fungi (Ā) (mm) [15] | inhibition of growth at 0.1 µg/mL [16] | Radial growth inhibition of fungi (Ā) (mm) [17] | Radial growth inhibition of fungi (Ā) (mm) [18] | inhibition of growth at 0.5 µg/mL [19] | Radial growth inhibition of fungi (Ā) (mm) [20]
COCCOC(C/N=C/c1c(O)c(O)c(C(C)C)c2cc(C)c(-c3c(C)cc4c(c3O)C(/C=N/CC(OCCOC)OCCOC)C(=O)C(O)=C4C(C)C)c(O)c12)OCCOC (stereo not given) | 45.63 mm | 58.38 mm | 19.63 mm | 31.63 mm | 19.75 mm | 58.63 mm | 45.5 mm | 1.5% | 32.13 mm | 1% | – | – | – | – | – | – | – | – | – | –
C=CCN/C=C1\C(=O)C(O)=C(C(C)C)c2cc(C)c(-c3c(C)cc4c(c3O)/C(=C/NCC=C)C(=O)C(O)=C4C(C)C)c(O)c21 | 36.63 mm | 45.88 mm | 14.63 mm | 24.75 mm | 17.13 mm | 47 mm | 34.63 mm | 22.6% | 26 mm | 20.7% | 29.88 mm | 41.63 mm | 18.13 mm | 27.25 mm | 38.88 mm | 9.3% | 50 mm | 19.25 mm | 15.6% | 53.75 mm
CCOC(=O)N1CCC(N/C=C2\C(=O)C(O)=C(C(C)C)c3cc(C)c(-c4c(C)cc5c(c4O)/C(=C/NC4CCN(C(=O)OCC)CC4)C(=O)C(O)=C5C(C)C)c(O)c32)CC1 | 46.25 mm | 59 mm | 19.63 mm | 32.13 mm | 19.88 mm | 59.25 mm | 46 mm | 0.4% | 32.25 mm | 0% | – | – | – | – | – | – | – | – | – | –
Cc1cc2c(c(O)c1-c1c(C)cc3c(C(C)C)c(O)c(O)c(/C=N/N4CCN(C)CC4)c3c1O)C(/C=N/N1CCN(C)CC1)C(=O)C(O)=C2C(C)C (stereo not given) | 45.75 mm | 58.5 mm | 19.25 mm | 31.63 mm | 19.38 mm | 58.75 mm | 45.75 mm | 1.3% | 31.88 mm | 0.8% | – | – | – | – | – | – | – | – | – | –
Cc1cc2c(c(O)c1-c1c(C)cc3c(C(C)C)c(O)c(O)c(/C=N/N4CCN(CCO)CC4)c3c1O)C(/C=N/N1CCN(CCO)CC1)C(=O)C(O)=C2C(C)C (stereo not given) | 45.5 mm | 58.25 mm | 19.5 mm | 31.5 mm | 19.63 mm | 58.5 mm | 45.38 mm | 1.7% | 32 mm | 1.3% | – | – | – | – | – | – | – | – | – | –
Cc1cc2c(c(O)c1-c1c(C)cc3c(c1O)/C(=C/NCCCN1CCCC1=O)C(=O)C(O)=C3C(C)C)/C(=C/NCCCN1CCCC1=O)C(=O)C(O)=C2C(C)C | 46.13 mm | 58.88 mm | 19.5 mm | 31.88 mm | 19.75 mm | 59.25 mm | 45.88 mm | 0.6% | 32.13 mm | 0% | – | – | – | – | – | – | – | – | – | –
COCCOCCOCCN/C=C1\C(=O)C(O)=C(C(C)C)c2cc(C)c(-c3c(C)cc4c(c3O)/C(=C/NCCOCCOCCOC)C(=O)C(O)=C4C(C)C)c(O)c21 | 35.25 mm | 44 mm | 14.13 mm | 24.13 mm | 14.88 mm | 45.75 mm | 34.13 mm | 25.7% | 25 mm | 22.8% | 27 mm | 39.25 mm | 16.38 mm | 25.75 mm | 36.88 mm | 12.7% | 48.5 mm | 16.75 mm | 18.1% | 51.75 mm
Cc1cc2c(c(O)c1-c1c(C)cc3c(c1O)/C(=C/NCCCN1CCOCC1)C(=O)C(O)=C3C(C)C)/C(=C/NCCCN1CCOCC1)C(=O)C(O)=C2C(C)C | 45.88 mm | 58.63 mm | 19.25 mm | 31.63 mm | 19.5 mm | 59 mm | 45.63 mm | 1% | 31.88 mm | 0.4% | – | – | – | – | – | – | – | – | – | –
Cc1cc2c(c(O)c1-c1c(C)cc3c(c1O)/C(=C/NCCOCCO)C(=O)C(O)=C3C(C)C)/C(=C/NCCOCCO)C(=O)C(O)=C2C(C)C | 35.88 mm | 45.25 mm | 14.38 mm | 24.5 mm | 16 mm | 46.25 mm | 34.5 mm | 23.6% | 25.75 mm | 21.9% | 28.5 mm | 40.38 mm | 17.63 mm | 26.5 mm | 38 mm | 11.2% | 49.5 mm | 18.13 mm | 16.5% | 52.63 mm
COCC/N=C/c1c(O)c(O)c(C(C)C)c2cc(C)c(-c3c(C)cc4c(c3O)C(/C=N/CCOC)C(=O)C(O)=C4C(C)C)c(O)c12 (stereo not given) | 46.13 mm | 58.88 mm | 19.5 mm | 31.88 mm | 19.75 mm | 59 mm | 45.88 mm | 0.6% | 32.13 mm | 0.4% | – | – | – | – | – | – | – | – | – | –
CCCCOCCOCCN/C=C1\C(=O)C(O)=C(C(C)C)c2cc(C)c(-c3c(C)cc4c(c3O)/C(=C/NCCOCCOCCCC)C(=O)C(O)=C4C(C)C)c(O)c21 | 33.88 mm | 43.63 mm | 13.5 mm | 23.63 mm | 14.25 mm | 44 mm | 33.25 mm | 26.4% | 23.5 mm | 25.7% | 25.63 mm | 36.75 mm | 15.13 mm | 24.63 mm | 34.75 mm | 16.9% | 45.13 mm | 16.38 mm | 23.8% | 49.25 mm
Cc1cc2c(c(O)c1-c1c(C)cc3c(c1O)/C(=C/NCCc1cccs1)C(=O)C(O)=C3C(C)C)/C(=C/NCCc1cccs1)C(=O)C(O)=C2C(C)C | 46 mm | 58.75 mm | 19.38 mm | 31.75 mm | 19.63 mm | 59.13 mm | 45.75 mm | 0.8% | 32 mm | 0.2% | – | – | – | – | – | – | – | – | – | –
